In patent US8178558B2, “Substituted pyridylmethyl bicycliccarboxyamide compounds” (Pfizer Inc., priority 2006, dated 2012):

Molecular target: T1, human VR1 receptors (Homo sapiens, UniProt Q8NER1)
T1 construct: host or cells: cells that express human VR1 receptors (cell type not specified)
Assay: Human VR1 antagonist assay (Ca2+ imaging)
Assay type: cell-based
Details: Ca2+ imaging (fura-2/AM) in cells highly expressing human VR1; agonist stimulation
Description: Human VR1 Antagonist Assay
VR1 antagonistic activity can be determined by the Ca^2+ imaging assay using human VR1 highly expressing cells. The cells that highly express human VR1 receptors are obtainable from several different conventional methods. The one standard method is cloning from human Dorsal Root Ganglion (DRG) or kidney according to the methods such as described in the journal article; Nature, 389, pp 816-824, 1997. Alternatively VR1 receptors highly expressing human keratinocytes are also known and published in the journal article (Biochemical and Biophysical Research Communications, 291, pp 124-129, 2002). […] Furthermore, the method to up regulate human VR1 gene, which is usually a silent gene or don't produce detectable level of VR1 receptors, is also available to obtain propriety cells. Such genetic modification method was described in detail; Nat. Biotechnol., 19, pp 440-445, 2001.
The cells that express human VR1 receptors were maintained in culture flask at 37° C. in an environment containing 5% CO2 until use in the assay. The intracellular Ca^2+ imaging assay to determine VR1 antagonistic activities were done by following procedures.
The culture medium was removed from the flask and fura-2/AM fluorescent calcium indicator was added to the flask at a concentration of 5 μM in the medium. The flask was placed in CO2 incubator and incubated for 1 hour. Then the cells expressing the human VR1 receptors were detached from the flask follow by washing with phosphate buffer saline, PBS(−) and re-suspended in assay buffer. The 80 μl of aliquot of cell suspension (3.75×10^5 cells/ml) was added to the assay plate and the cells were spun down by centrifuge (950 rpm, 20° C., 3 minutes).
The compounds of the examples were tested in the Human VR1 antagonist assay described above.
Capsaicin Stimulation Assay
The capsaicin-induced changes in the intracellular calcium concentration were monitored using FDSS 6000 (Hamamatsu Photonics, Japan), a fluorometric imaging system. The cell suspension in Krebs-Ringer HEPES (KRH) buffer (115 mM NaCl, 5.4 mM KCl, 1 mM MgSO4, 1.8 mM CaCl2, 11 mM D-Glucose, 25 mM HEPES, 0.96 mM Na2HPO4, pH 7.3) were pre-incubated with varying concentrations of the test compounds or KRH buffer (buffer control) for 15 minutes at room temperature under the dark condition. Then capsaicin solution, which gives 300 nM in assay mixture, was automatically added to the assay plate by the FDSS 6000.
The Acid-induced changes in the intracellular calcium concentration were monitored using FDSS 6000 (Hamamatsu Photonics, Japan), a fluorometric imaging system. The cell suspension in resting buffer (HBSS supplemented with 10 mM HEPES, pH 7.4) were pre-incubated with varying concentrations of the test compounds or resting buffer (buffer control) for 15 minutes at room temperature under the dark condition. The cells were automatically added the stimulating solution (HBSS supplemented with MES, final assay buffer pH5.8) by the FDSS 6000.
Determination of Antagonist Activity
The monitoring of the changes in the fluorescence signals (λex=340 nm/380 nm, λem=510-520 nm) was initiated at 1 minute prior to the addition of capsaicin solution or acidic buffer and continued for 5 minute.

T1 sequence (Q8NER1 whole entry): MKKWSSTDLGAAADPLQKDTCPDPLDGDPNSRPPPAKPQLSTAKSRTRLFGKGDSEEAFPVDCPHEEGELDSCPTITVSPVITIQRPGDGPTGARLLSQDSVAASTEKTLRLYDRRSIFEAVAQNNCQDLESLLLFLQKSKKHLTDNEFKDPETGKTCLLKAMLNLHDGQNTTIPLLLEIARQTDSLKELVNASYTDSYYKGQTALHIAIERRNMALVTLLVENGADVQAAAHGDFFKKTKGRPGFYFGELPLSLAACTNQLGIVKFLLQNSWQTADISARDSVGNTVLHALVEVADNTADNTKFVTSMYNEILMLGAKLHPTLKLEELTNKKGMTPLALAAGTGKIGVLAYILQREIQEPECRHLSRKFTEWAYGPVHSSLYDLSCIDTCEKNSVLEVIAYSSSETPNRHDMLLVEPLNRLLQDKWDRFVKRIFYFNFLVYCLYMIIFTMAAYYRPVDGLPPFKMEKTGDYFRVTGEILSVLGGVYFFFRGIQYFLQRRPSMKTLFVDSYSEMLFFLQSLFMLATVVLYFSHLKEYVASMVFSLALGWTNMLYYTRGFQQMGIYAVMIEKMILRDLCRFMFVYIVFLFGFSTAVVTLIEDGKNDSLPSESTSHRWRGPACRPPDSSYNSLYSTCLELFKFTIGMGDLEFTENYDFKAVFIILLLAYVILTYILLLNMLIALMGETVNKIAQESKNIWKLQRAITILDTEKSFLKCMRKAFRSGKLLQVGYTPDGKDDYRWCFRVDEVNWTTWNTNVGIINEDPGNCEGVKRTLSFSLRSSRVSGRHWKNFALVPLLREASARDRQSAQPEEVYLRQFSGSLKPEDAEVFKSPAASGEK

Structure (SMILES)	IC50 [µM]
Cc1ccc(CNC(=O)c2ccc3cc(C(C)(C)C)ccc3c2)cn1 [Example A1, 6-tert-butyl-N-[(6-methylpyridin-3-yl)methyl]-2-naphthamide]	0.25
Cc1ccc(C(C)NC(=O)c2ccc3cc(C(C)(C)C)ccc3c2)cn1 (centres unmarked) [Example A2, 6-tert-butyl-N-[1-(6-methylpyridin-3-yl)ethyl]-2-naphthamide]	0.0678
Cc1ccc([C@@H](C)NC(=O)c2ccc3cc(C(C)(C)C)ccc3c2)cn1 [Example A3, 6-tert-butyl-N-[(1R)-1-(6-methylpyridin-3-yl)ethyl]-2-naphthamide]	0.096
Cc1ncc([C@@H](C)NC(=O)c2ccc3cc(C(C)(C)C)ccc3c2)cc1Cl [Example A4, 6-tert-butyl-N-[(1R)-1-(5-chloro-6-methylpyridin-3-yl)ethyl]-2-naphthamide]	0.271
CC[C@@H](NC(=O)c1ccc2cc(C(C)(C)C)ccc2c1)c1ccc(C)nc1 [Example A6, (R)-6-tert-butyl-N-(1-(6-methylpyridin-3-yl)propyl)-2-naphthamide]	0.261
Cc1ccc([C@@H](C)NC(=O)c2ccc3cc(C(C)(C)C)ccc3n2)cn1 [Example B1, 6-tert-butyl-N-[(1R)-1-(6-methylpyridin-3-yl)ethyl]quinoline-2-carboxamide]	0.426
C[C@@H](NC(=O)c1ccc2cc(C(C)(C)C)ccc2c1)c1ccncc1 [Example C1, 6-tert-butyl-N-[(1R)-1-pyridin-4-ylethyl]-2-naphthamide]	0.451
COc1cc(CNC(=O)c2ccc3cc(C(C)(C)C)ccc3c2)ccn1 [Example C2, 6-tert-butyl-N-[(2-methoxypyridin-4-yl)methyl]-2-naphthamide]	0.203
Cc1cc(CNC(=O)c2ccc3cc(C(C)(C)C)ccc3c2)c(C)cn1 [Example C4, 6-tert-butyl-N-[(2,5-dimethylpyridin-4-yl)methyl]-2-naphthamide]	0.0325
Cc1cc(CNC(=O)c2ccc3cc(C(C)(C)C)ccc3n2)c(C)cn1 [Example D2]	0.0851

The remaining lines, values ahead:

IC50 [µM]	Structure (SMILES)
0.237 to 0.455	Oc1cc2c(cc1O)CN(C(=S)NCCc1ccc(Cl)cc1)CCC2 [Capsazepine, reference compound]
0.127	C[C@@H](NC(=O)c1ccc2cc(C(C)(C)C)ccc2c1)c1ccc(CO)nc1 [Example A5, 6-tert-butyl-N-{(1R)-1-[6-(hydroxymethyl)pyridin-3-yl]ethyl}-2-naphthamide]
0.0775	Cc1cc([C@@H](C)NC(=O)c2ccc3cc(C(C)(C)C)ccc3c2)ccn1 [Example C3, 6-tert-butyl-N-[(1R)-1-(2-methylpyridin-4-yl)ethyl]-2-naphthamide]
0.231	Cc1cc(CNC(=O)c2ccc3cc(C(C)(C)C)ccc3n2)ccn1 [Example D1]
